Results: article PMC9045272, “Quorum-Sensing Master Regulator VfmE Is a c-di-GMP Effector That Controls Pectate Lyase Production in the Phytopathogen Dickeya dadantii” (Microbiology Spectrum, 2022)

Key:
YcgR from D. dadantii = biological target: T1, YcgR from D. dadantii (Dickeya dadantii, UniProt E0SAQ7); assay: ELISA with biotinylated c-di-GMP, competed by unlabelled c-di-GMP; type: binding; conditions: labelled compound (25 nM biotinylated c-di-GMP, Biolog); competition with 10 uL of 250 nM unlabelled c-di-GMP; PBS pH 7.4, room temperature; plate coated with lysate protein; positive control protein
T1 construct: 6xHis-tagged, recombinant, soluble lysate coated on plate

VfmE = biological target: T2, VfmE (Dickeya dadantii, UniProt E0SMH0); assay: as above; type: binding; conditions: labelled compound (25 nM biotinylated c-di-GMP, Biolog); competition with 10 uL of 250 nM unlabelled c-di-GMP; PBS pH 7.4, room temperature; plate coated with lysate protein
T2 construct: full length, N-terminal 6xHis-MBP fusion (pMAL-c6T) kept, expressed in E. coli NEBExpress, soluble lysate coated on plate
T2 sequence (E0SMH0 entry or part of it): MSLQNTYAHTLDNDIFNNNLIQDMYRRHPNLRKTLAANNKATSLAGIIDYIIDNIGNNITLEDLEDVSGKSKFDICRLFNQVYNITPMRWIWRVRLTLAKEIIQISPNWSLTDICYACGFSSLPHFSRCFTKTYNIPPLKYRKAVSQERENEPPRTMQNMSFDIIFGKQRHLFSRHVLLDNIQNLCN

T1 sequence (E0SAQ7 entry or part of it): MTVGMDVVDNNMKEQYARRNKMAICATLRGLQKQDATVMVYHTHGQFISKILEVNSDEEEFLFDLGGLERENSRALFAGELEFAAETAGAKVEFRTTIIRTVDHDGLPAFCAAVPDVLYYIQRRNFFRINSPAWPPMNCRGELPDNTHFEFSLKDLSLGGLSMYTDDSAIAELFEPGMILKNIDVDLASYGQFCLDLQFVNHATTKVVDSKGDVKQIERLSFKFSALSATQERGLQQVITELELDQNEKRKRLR

Which results are given for Nc1nc2c(ncn2[C@@H]2O[C@@H]3COP(=O)(O)O[C@H]4[C@@H](O)[C@H](n5cnc6c(=O)[nH]c(N)nc65)O[C@@H]4COP(=O)(O)O[C@H]3[C@H]2O)c(=O)[nH]1 [c-di-GMP]?
ELISA with biotinylated c-di-GMP, competed by unlabelled c-di-GMP (YcgR from D. dadantii): We observed a reduced absorbance in both VfmE- and YcgR-treated wells; ELISA with biotinylated c-di-GMP, competed by unlabelled c-di-GMP (VfmE): VfmE binds c-di-GMP with specificity comparable to that of a known c-di-GMP effector, YcgR
